Assay results from US11814370B2, “Deuterated N-(5-(2,3-dihydrobenzo[b][1,4]dioxine-6-carboxamido)-2-fluorophenyl)-2-((4-ethylpiperazin-1-yl)methyl)quinoline-6-carboxamide” (priority 2016, dated 2023).

Key:
[1] = system: HSP72 induction (product of HSF1 transcriptional activity) in SK-OV-3 cells; assay: Cell-based ELISA (Cellisa) for HSP72 expression after 17-AAG; set-up: species or system human; conditions: SK-OV-3 ovarian cancer cell line; summary of Table 1
Experimental: Prior to use, the cells were analyzed by short tandem repeat (STR) profiling. Polymorphic STR loci were amplified using a polymerase chain reaction (PCR) primer set. The PCR product (each locus being labelled with a different fluorophore) was analyzed simultaneously with size standards using automated fluorescent detection. The number of repeats at 10 different loci (as recommended by the American Type Culture Collection, ATCC) was used to define the STR profile and this was cross-referenced with online databases to confirm authenticity. […] The cells were free of mycoplasma contamination as determined by a sensitive nested PCR protocol (Venor GeM kit, Minerva Biolabs, Germany). Cells were grown in DMEM/10% FCS, 2 mM glutamine and nonessential amino acids in 5% CO2.
Cell-Based ELISA (Cellisa) for HSP72 Expression
To follow HSP72 protein expression, a product of HSF1 transcriptional activity, the Cellisa was developed. […] The medium was removed and cells were fixed with fixing solution (4% paraformaldehyde, 0.3% TritonX-100 in PBS buffer) for 30 min at 4° C. The plates were then washed with 0.1% Tween-20/deionized water, before blocking with 5% milk for 30 mins at 37° C. […] Following 4× washes, the plates were incubated with europium-labelled anti-mouse antibody (0.6 μg/mL) in Delfia assay buffer (Perkin Elmer) for 1 h at 37° C. […]

[2] = system: SK-OV-3 ovarian cancer cell line; assay: cells; type: cell-based; conditions: Homo sapiens, SK-OV-3, 96 h, read-out: SK-OV-3 pGI50 ± SEM (n) (converted)
Experimental: Cells were grown in DMEM/10% FCS, 2 mM glutamine and nonessential amino acids in 5% CO2.
In Vitro Cell Viability Assay
The cell titer blue viability (CTB) (Promega) assay provides a homogenous, fluorometric method for estimating the number of viable cells. It uses the dark blue indicator dye resazurin to measure the metabolic capacity of cells which is an indicator of cell viability. Viable cells are able to reduce resazurin into resorufin (pink), which is highly fluorescent. […] Compounds (at a range of concentrations) were added using the ECHO 550 liquid handler (Labcyte, USA) and then left at 37° C. for 96 h. Titre blue reagent was added to each well and left at 37° C. for 3-4 h. Fluorescence was measured using the Envision machine (Perkin Elmer, UK). The 50% growth inhibitory concentration (GI50) was determined by fitting the data to a dose-response curve without limits using non-linear regression. Each concentration was tested twice.

GI50 [2] | SMILES | cellular activity (in words) [1]
– | [2H]C([2H])([2H])C([2H])([2H])N1CCN(Cc2ccc3cc(C(=O)Nc4cc(NC(=O)c5ccc6c(c5)OCCO6)ccc4F)ccc3n2)CC1 [Compound A, N-(5-(2,3-Dihydrobenzo[b][1,4]dioxine-6-carboxamido)-2-fluorophenyl)-2-((4-ethyl-d5-piperazin-1-yl)methyl)quinoline-6-carboxamide] | potent cellular activity
18.2 nM | [2H]C1([2H])N(CC)C([2H])([2H])C([2H])([2H])N(Cc2ccc3cc(C(=O)Nc4cc(NC(=O)c5ccc6c(c5)OCCO6)ccc4F)ccc3n2)C1([2H])[2H] [Compound B, N-(5-(2,3-Dihydrobenzo[b][1,4]dioxine-6-carboxamido)-2-fluorophenyl)-2-((4-ethyl-piperazin-d8-1-yl)methyl)quinoline-6-carboxamide] | –
11.5 nM | [2H]C1([2H])Oc2ccc(C(=O)Nc3ccc(F)c(NC(=O)c4ccc5nc(CN6CCN(CC)CC6)ccc5c4)c3)cc2OC1([2H])[2H] [Compound C, N-(5-(2,3-Dihydrobenzo-d4-[b][1,4]dioxine-6-carboxamido)-2-fluorophenyl)-2-((4-ethylpiperazin-1-yl)methyl)quinoline-6-carboxamide] | –
